“Also recorded” adds a separate entry of the source.

The assay concerns anthers of B. rapa x B. oleracea cross (F1). As to the kind of experiment: Opening of anthers after treating immature flower buds of the AC hybrid. It counts as in vivo, Brassica rapa x Brassica oleracea interspecific hybrid. As to conditions: 20 nM; F1 of this cross normally does not form open anthers. From the text: Alternatively or in addition, preferably in the provided first seed plant, at least about 2%, 4%, 6%, 8%, 10%, 15%, 20%, 25%, 30%, 35%, 40%, 45%, 50%, 55%, 60%, 65%, 70%, 75%, 80%, 85%, 90%, 95% or 100% of the anthers remain closed upon pollen maturation. Preferably, less than about 95%, 90%, 85%, 80%, 75%, 70%, 65%, 60%, 55%, 50%, 45%, 40%, 35%, 30%, 25%, 20%, 15%, 10%, 8%, 6%, 4%, 2% or less than about 1% of the anthers open upon pollen maturation.

With `NC1=NC(=O)C(=Cc2ccc(O)cc2)S1` [Mirin, 2-Amino-5-[(4-hydroxyphenyl)methylene]-4(5H)-thiazolone], the opening of anthers entry is listed as “open anther; also recorded: opening of anthers”.

These data come from patent US20240324531A1, “METHOD TO INCREASE POLLEN FERTILITY” (Keygene N.V., priority 2021, published 2024).
